Experimental findings from US10842749B2, “Compositions and methods of treating therapy resistant cancer and uses thereof” (priority 2012, dated 2020) are described below.

The subject of one series is MDA-MB-231/MDR cells. As to the kind of experiment: Cell viability of MDR1-transfected MDA-MB-231/MDR cells. It counts as cell-based, human. Conditions: cell viability 72 hours after treatment. As to the method:
(§1) FIGS. 2A-2H show vesicular transport of pDox in tumor cells and effective killing of tumor cells carrying an overexpressed multidrug resistance gene mediated by pDox. […] The presence of doxorubicin (red) in subcellular organelle was visualized by fluorescence microscopy. Nuclei were stained blue with DAPI and late endosomes/lysosomes were stained green with LysoTracker. Nuclear accumulation could be detected as early as 15 minutes after treatment of cells with Dox, while co-localization of Dox with LysoTracker was apparent in pDox treated cells 15 minutes and 1 hour after treatment. […] The cells were sensitive to pDox, but resistant to treatment with free Dox. FIG. 2D depicts fluorescence images of subcellular organelles. Nuclei were stained in blue DAPI and lysosomes were stained in green with LysoTracker. Images of Dox, nuclei and lysosomes were merged to show subcellular localization of Dox at different time points.
Many breast cancer patients are resistant to chemotherapy due to drug efflux. About 25-50% of previously untreated breast cancers express the MDR1 gene encoding p-glycoprotein, one of the drug efflux pump proteins^17. Overexpression of MDR1 has also been attributed to acquired resistance to anthracyclines and cross-resistance to other chemotherapy drugs in the clinic^15. […]

The subject of series [1] is 4T1 lung metastasis. Description: 4T1 lung metastasis model, follow-up study (weekly x 4 after surgery).
Protocol: 4T1 tumor cells were inoculated in the fourth mammary gland fat pad of female BALB/c mice. The primary tumors were surgically removed when they reached 250-300 mm3, and mice (n=10 mice/group) were treated weekly with 6 mg/kg Dox, Doxil, pDox, or Porous silicon/pDox for four consecutive weeks. Tumor growth was monitored by tracking bioluminescent intensity with the Xenogene IVIS-200 imaging system.
To generate the mouse 4T1 lung metastasis model, BALB/c mice were inoculated with 4T1 cells (5×10^4 cells/mouse) into the mammary gland fat pad. […] In the follow-up study, 4T1 cells that were engineered to express luciferase and GFP, and were inoculated into the mammary gland fat pads of female BALB/c mice. The primary tumors were surgically removed once they reached 250-300 mm^3. Mice were treated with 6 mg/kg of the therapeutic agents weekly for 4 weeks, and subsequently maintained to assess survival benefit from treatments.
To evaluate drug dosing requirements and sustainability after administration, Applicants applied a different drug regimen to BALB/c mice bearing 4T1 tumors. Applicants performed complete surgical removal of the primary tumors once they reached 250-300 mm3, and confirmed that the extraction was thorough by the lack of bioluminescence from the luciferase- and GFP-bearing mammary gland fat pads (FIG. 5A). […]
For series [2], the system named is MDA-MB-231 human breast cancer lung metastasis. As to the kind of experiment: Murine model of MDA-MB-231 human breast cancer lung metastasis. The conditions noted are these: Dox 3 mg/kg weekly, 6 weeks. It counts as in vivo, nude mice. As to the method: (§2) Applicants selected the murine model of MDA-MB-231 human breast cancer lung metastasis, widely used to study mechanism of pathology and for drug development^37-39, to evaluate therapeutic efficacy of porous silicon/pDox. […] Applicants treated the tumor-bearing mice with free pDox, porous silicon/pDox, and the clinically available drugs doxorubicin and Doxil, beginning one week after tumor inoculation and lasting for 6 weeks. Drugs were dosed biweekly at 6 mg/kg to mice in all treatment groups (10 mice per group) except free Dox.

The nature of series [3]: Tissue distribution of Dox by HPLC in MDA-MB-231 lung metastasis mice.
Protocol: They were sacrificed 1 hour, 1 day, or 7 days later. Dox concentration in major organs was analyzed by HPLC.
Quantitation of doxorubicin was performed using Daunorubicin (Dau, Sigma) as an internal standard^49. Briefly, tissues were homogenized in PBS (100 mg tissue/330 μL PBS), and then mixed with 10 μL Dau (50 μg/mL). A 4-fold volume of the extraction solution containing chloroform and methanol (3/1, v/v) was subsequently added. The mixture was vortexed for 1 minute, and centrifuged at 13,000 rpm for 10 minutes to separate the aqueous and organic phases. The organic phase was collected, and the solvent was evaporated at 25° C. under a flow of nitrogen. The extract was dissolved in 100 μL methanol, and a 10 μL aliquot was used for HPLC analysis.
Series [4] is described as follows: Heart H&E staining and body weight in treated tumor mice. As to the method: FIGS. 4A-4C show H&E staining of heart tissues in mice treated with 6 mg/kg free Dox, Doxil, or porous silicon/pDox for 6 weeks.
as §2

A further series relates to MDA-MB-231 cells. Description: Intracellular trafficking of Dox and pDox. It counts as cell-based, human. Conditions: fluorescence microscopy. Here is the method: as §1, with “Images of Dox, nuclei and lysosomes were merged to show subcellular localization of Dox at different time points.” left out
Applicants conducted studies to compare cellular uptake and subcellular trafficking of free Dox and pDox nanoparticles in MDA-MB-231 cells. […] However, no nuclear accumulation was detected in the pDox-treated cells at the same time (FIG. 2A and FIG. 2D). The red fluorescence from pDox could be co-localized with the green LysoTracker-positive subcellular organelles beginning at 15 minutes, and reached a high level one hour after pDox treatment (FIG. 2A and FIG. 2D), indicating pDox entered tumor cells via vesicular transport. […]

The test system of series [5] is 4T1 lung metastasis. As to the kind of experiment: 4T1 lung metastasis model, pilot study (two treatments). It counts as in vivo, BALB/c mice. The conditions noted are these: 6 mg/kg on day of surgery and 10 days later. An excerpt: All mice were sacrificed three weeks after the first treatment, and lung tissues were examined for tumor metastasis. […] The arrows indicate tumor nodules in the lung (FIG. 5F-2).
Thus the 4T1 syngeneic tumor mice represent a second Triple Negative Breast Cancer (TNBC) tumor model in this study. When inoculated into the mammary gland fat pad of BALB/c mice, 4T1 tumor cells formed rapidly growing primary tumors. If left untreated, all of the mice would eventually develop lung metastasis from primary tumors. In a pilot study, surgical removal of primary tumors (about 400 mm^3 in size) was performed, and then PBS, Dox, pDox, or Porous silicon/pDox was administered once immediately after surgery and again 10 days post-surgery.

Consider `COc1cccc2c1C(=O)c1c(O)c3c(c(O)c1C2=O)C[C@@](O)(C(=O)CO)C[C@@H]3O[C@H]1C[C@H](N)[C@H](O)[C@H](C)O1` [Dox, doxorubicin], for which, in the series on MDA-MB-231/MDR cells, the “sensitivity of MDR1-expressing cells to treatment” value is “resistant”. Besides, the “extension of median survival over the PBS control” value in the series with 4T1 lung metastasis [1] (6 mg/kg weekly for 4 weeks) amounted to 13 days. Moreover, the “Median survival after tumor inoculation” value in the series on 4T1 lung metastasis [1] (6 mg/kg weekly for 4 weeks after surgical removal of primary tumor) worked out at 62 days. The “extension of median survival over control groups” value in series [2] (pDox 6 mg/kg biweekly) was 2 weeks. For the same compound, in series [2] (Doxil, pDox, MSV/pDox 6 mg/kg biweekly, tail vein), the Median survival was determined as 98.5 days. For the same compound, in series [3] (6 mg/kg i.v., one hour after dosing), the “Dox concentration in the heart” value was “over 10 μg/g organ”. Besides, the “plasma Dox” value in series [3] (1 hour post-dosing) is “barely detectable”. Further, the “heart histology (H&E)” value in series [4] (6 mg/kg biweekly) is given as “deformation of myocardial fibers”. Also, in series [4] (Dox 3 mg/kg weekly, Doxil, porous silicon/pDox 6 mg/kg biweekly), the body weight change entry is “initial drop in body weight but recovered shortly”. Further, in the series on MDA-MB-231 cells, the “time of nuclear accumulation after addition of drug” value came to 15 min. Besides, the “lung tumor nodules / metastasis” value in the series with 4T1 lung metastasis [5] is listed as “multiple, large tumor nodules in the lung”.
